Assay results as given in US7476401B2, “Protein and peptide delivery to mammalian cells in vitro” (Mirus Bio LLC, priority 2003, dated 2009).

System: HeLa cells
Assay: Protein delivery to HeLa cells, visualized by fluorescence confocal microscopy
Format: cell-based
Details: technique #2, FIG. 2B
Description: HeLa cells were maintained in DMEM containing 10% fetal bovine serum. For polypeptide delivery, cells were plated in 6-well plates containing glass cover slips at a density of 50,000-100,000 cells per well and grown for 24-48 hours before incubation with polypeptide formulations.
Two different techniques were used for contacting polypeptide formulations with cells. In both techniques, cells were grown to 30-70% confluency and washed once with 2 ml 37° C. PBS prior to addition of polypeptide formulations.
Technique #1: Peptide formulations were diluted by addition of 150 μl 37° C. PBS (180-200 μl total volume). Formulations were than added to cells on cover slips. Following a 5 min incubation at room temperature (RT) 0.8 ml 37° C. DMEM was added to each well and cells were again incubated for 5 min at RT. Media was then aspirated off cells and 2.0 ml DMEM containing 10% bovine serum was added. […]
Visualization of polypeptide delivery to cells: In order to visually analyze polypeptide delivery, cells were washed 3× with PBS, fixed for 30 min at 4° C. in PBS containing 4% formaldehyde and washed 3× with PBS. Cover slips were then mounted onto slides for fluorescence microscopy using a Zeiss LSM510 laser confocal microscope. Rhodamine was detected by exciting with a HeNe laser at 543 nm and detecting with a 560 nm long pass filter. […]

Substance: modification #26: Rhodamine-labeled Bovine Serum Albumin modified with chlorodimethyloctadecylsilane, dried, hydrated with PBS
- uptake of modified protein by cells: uptake of BSA
